Experimental data published in US20240228555A9, “ANTIMICROBIAL PEPTIDOMIMETICS” (Basilea Pharmaceutica International AG, Allschwil, priority 2020, published 2024).
Where a SMILES comes first, the peptide text is derived from it.

What was measured:
[1] = test system: human red blood cells (hRBC); assay type: cell-based; conditions: red cells of human, 1 h, 0.2 g/L
Method: (§1) Lyophilized peptides were weighed on a Microbalance (Mettler MT5) and dissolved in sterile water to a final concentration of 1 mg/mL. Stock solutions were kept at +4° C., light protected.
The peptides were tested for their hemolytic activity against human red blood cells (hRBC). Fresh hRBC were washed three times with phosphate buffered saline (PBS) and centrifuged for 5 min at 3000×g. Compounds (200 μg/mL) were incubated with 20% hRBC (v/v) for 1 h at 37° C. and shaking at 300 rpm. A value of 0% and 100% cell lyses, respectively, was determined by incubation of hRBC in the presence of PBS and 2.5% Triton X-100 in H2O, respectively. The samples were centrifuged, the supernatants were 8-fold diluted in PBS buffer and the optical densities (OD) were measured at 540 nm. The 100% lyses value (OD540H2O) gave an OD540 of approximately 0.5-1.0.
Percent hemolysis was calculated as follows: (OD540peptide/OD540H2O)×100%.

[2] = test system: Klebsiella pneumoniae SSI3010; conditions: SSI3010
Method: as §1
(§2) Colonies of the microorganisms were diluted in saline (0.85%, NaCl) and adjusted using a McFarland reader (bioMérieux SA, Marcy-l'Etoile, France) to 0.5 McFarland standard. Subsequently, the bacterial suspension was diluted in Mueller-Hinton II (MHII, cation adjusted) broth to give approximately 5×10^5 colony forming units (CFU/mL).
(§3) 10^6 colony forming units (CFU)/mL. Aliquots (90 μl) of inoculate were added to 10 μl of water+P-80 (Polysorbate 80, 0.002% final concentration) containing the peptide in serial two-fold dilutions at 10 fold final concentration. The following microorganisms were used to determine antibiotic selectivity of the peptides: Escherichia coli ATCC 25922, Escherichia coli MCR-1 Af 45 and Klebsiella pneumoniae SSI3010.

[3] = test system: Escherichia coli ATCC 25922; conditions: ATCC 25922
Method: as §1, §2, §3

[4] = test system: Escherichia coli MCR-1 Af 45; conditions: Mueller-Hinton broth II, no visible growth after 18-20 hours at 35° C.
Method: as §1, §2, §3

| Compound | Hemolysis at 0.2 g/L [1] [%] | Klebsiella pneumoniae SSI3010 MIC [2] [µg/mL] | Escherichia coli ATCC 25922 MIC [3] [µg/mL] | Escherichia coli MCR-1 Af 45 MIC [4] [µg/mL] |
| --- | --- | --- | --- | --- |
| CC[C@H](C)[C@H](NC(=O)[C@@H](NC(=O)[C@@H]1C[C@@H](O)CN1C(=O)[C@@H](N)C(C)C)[C@@H](C)CC)C(=O)N[C@@H](Cc1ccc(O)cc1)C(=O)N[C@@H]1C(=O)N[C@@H](CC(N)=O)C(=O)N[C@@H](CCCNC(=N)N)C(=O)N[C@@H](CCN)C(=O)N[C@@H](CO)C(=O)N[C@H](CCN)C(=O)N[C@@H](CCCCN)C(=O)N[C@H](C(=O)N[C@@H](CCN)C(=O)N[C@@H](CCN)C(=O)N[C@@H](Cc2ccc(O)cc2)C(=O)O)CSSC1(C)C [Example 76, Val-Hyp-Ile-Ile-Tyr-Pen-Asn-Arg-Dab-Ser-^DDab-Lys-Cys-Dab-Dab-Tyr] (HELM PEPTIDE1{V.[Hyp].I.I.Y.[Pen].N.R.[Dab].S.[NCC[C@@H](N[*:1])C(=O)[*:2]].K.C.[Dab].[Dab].Y}$PEPTIDE1,PEPTIDE1,6:R3-13:R3$$$V2.0) | <1 | 0.25 | 0.0625 | 0.0625 |
| CC[C@H](C)[C@H](NC(=O)[C@@H]1C[C@@H](O)CN1C(=O)[C@@H](N)C(C)C)C(=O)N[C@H](C(=O)N[C@@H](Cc1ccc(O)cc1)C(=O)N[C@@H]1C(=O)N[C@@H](CC(N)=O)C(=O)N[C@@H](CCCNC(=N)N)C(=O)N[C@@H](CCN)C(=O)N[C@@H](CO)C(=O)N[C@H](CCN)C(=O)N[C@@H](CCCCN)C(=O)N[C@H](C(=O)N[C@@H](CCN)C(=O)N[C@@H](CCN)C(=O)N[C@@H](Cc2ccc(O)cc2)C(=O)O)CSSC1(C)C)[C@@H](C)O [Example 77, Val-Hyp-Ile-Thr-Tyr-Pen-Asn-Arg-Dab-Ser-^DDab-Lys-Cys-Dab-Dab-Tyr] (HELM PEPTIDE1{V.[Hyp].I.T.Y.[Pen].N.R.[Dab].S.[NCC[C@@H](N[*:1])C(=O)[*:2]].K.C.[Dab].[Dab].Y}$PEPTIDE1,PEPTIDE1,6:R3-13:R3$$$V2.0) | <1 | 0.125 | 0.0625 | 0.0625 |
| CC[C@H](C)[C@H](NC(=O)[C@@H](NC(=O)[C@@H]1C[C@@H](O)CN1C(=O)[C@@H](N)C(C)C)[C@@H](C)CC)C(=O)N[C@@H](Cc1ccc(O)cc1)C(=O)N[C@@H]1C(=O)N[C@@H](CC(N)=O)C(=O)N[C@@H](CCCNC(=N)N)C(=O)N[C@@H](CCN)C(=O)N[C@@H]([C@@H](C)O)C(=O)N[C@H](CCN)C(=O)N[C@@H](CCCN)C(=O)N[C@H](C(=O)N[C@@H](CCN)C(=O)N[C@@H](CCCNC(=N)N)C(=O)N[C@@H](Cc2ccc(O)cc2)C(=O)O)CSSC1(C)C [Example 78, Val-Hyp-Ile-Ile-Tyr-Pen-Asn-Arg-Dab-Thr-^DDab-Orn-Cys-Dab-Arg-Tyr] (HELM PEPTIDE1{V.[Hyp].I.I.Y.[Pen].N.R.[Dab].T.[NCC[C@@H](N[*:1])C(=O)[*:2]].[Orn].C.[Dab].R.Y}$PEPTIDE1,PEPTIDE1,6:R3-13:R3$$$V2.0) | <1 | 0.125 | 0.0625 | 0.0625 |
| CC[C@H](N)C(=O)N1C[C@H](O)C[C@H]1C(=O)N[C@H](C(=O)N[C@H](C(=O)N[C@@H](Cc1ccc(O)cc1)C(=O)N[C@@H]1C(=O)N[C@@H](CC(N)=O)C(=O)N[C@@H](CCCNC(=N)N)C(=O)N[C@@H](CCN)C(=O)N[C@@H]([C@@H](C)O)C(=O)N[C@H](CCN)C(=O)N[C@@H](CCCCN)C(=O)N[C@H](C(=O)N[C@@H](CCN)C(=O)N[C@@H](CCCNC(=N)N)C(=O)N[C@@H](Cc2ccc(O)cc2)C(=O)O)CSSC1(C)C)[C@@H](C)CC)[C@@H](C)CC [Example 79, Abu-Hyp-Ile-Ile-Tyr-Pen-Asn-Arg-Dab-Thr-^DDab-Lys-Cys-Dab-Arg-Tyr] (HELM PEPTIDE1{[Abu].[Hyp].I.I.Y.[Pen].N.R.[Dab].T.[NCC[C@@H](N[*:1])C(=O)[*:2]].K.C.[Dab].R.Y}$PEPTIDE1,PEPTIDE1,6:R3-13:R3$$$V2.0) | <1 | 0.5 | 0.125 | 0.125 |
| CC[C@H](C)[C@H](NC(=O)[C@@H]1CCCN1C(=O)[C@@H](N)C(C)C)C(=O)N[C@H](C(=O)N[C@@H](Cc1ccc(O)cc1)C(=O)N[C@@H]1C(=O)N[C@@H](CC(N)=O)C(=O)N[C@@H](CCCNC(=N)N)C(=O)N[C@@H](CCN)C(=O)N[C@@H]([C@@H](C)O)C(=O)N[C@H](CCN)C(=O)N[C@@H](CCCCN)C(=O)N[C@H](C(=O)N[C@@H](CCN)C(=O)N[C@@H](CCCNC(=N)N)C(=O)N[C@@H](Cc2ccc(O)cc2)C(=O)O)CSSC1(C)C)[C@@H](C)O [Example 80, Val-Pro-Ile-Thr-Tyr-Pen-Asn-Arg-Dab-Thr-^DDab-Lys-Cys-Dab-Arg-Tyr] (HELM PEPTIDE1{V.P.I.T.Y.[Pen].N.R.[Dab].T.[NCC[C@@H](N[*:1])C(=O)[*:2]].K.C.[Dab].R.Y}$PEPTIDE1,PEPTIDE1,6:R3-13:R3$$$V2.0) | <1 | 0.25 | 0.125 | 0.0625 |
| CC[C@H](C)[C@H](NC(=O)[C@@H]1C[C@@H](O)CN1C(=O)[C@@H](N)C(C)C)C(=O)N[C@@H](CCN)C(=O)N[C@@H](Cc1ccc(O)cc1)C(=O)N[C@@H]1C(=O)N[C@@H](CC(N)=O)C(=O)N[C@@H](CCCNC(=N)N)C(=O)N[C@@H](CCN)C(=O)N[C@@H](CO)C(=O)N[C@H](CCN)C(=O)N[C@@H](CCCCN)C(=O)N[C@H](C(=O)N[C@@H](CCN)C(=O)N[C@@H](CCN)C(=O)N[C@@H](Cc2ccc(O)cc2)C(=O)O)CSSC1(C)C [Example 81, Val-Hyp-Ile-Dab-Tyr-Pen-Asn-Arg-Dab-Ser-^DDab-Lys-Cys-Dab-Dab-Tyr] (HELM PEPTIDE1{V.[Hyp].I.[Dab].Y.[Pen].N.R.[Dab].S.[NCC[C@@H](N[*:1])C(=O)[*:2]].K.C.[Dab].[Dab].Y}$PEPTIDE1,PEPTIDE1,6:R3-13:R3$$$V2.0) | <1 | 0.5 | 0.125 | 0.0625 |
| CC[C@H](C)[C@H](NC(=O)[C@@H](NC(=O)[C@@H]1C[C@@H](O)CN1C(=O)[C@@H](N)C(C)C)[C@@H](C)CC)C(=O)N[C@@H](Cc1ccc(O)cc1)C(=O)N[C@@H]1C(=O)N[C@@H](CC(N)=O)C(=O)N[C@@H](CCCNC(=N)N)C(=O)N[C@@H](CCCCN)C(=O)N[C@@H]([C@@H](C)O)C(=O)N[C@H](CCN)C(=O)N[C@@H](CCCCN)C(=O)N[C@H](C(=O)N[C@@H](CCCCN)C(=O)N[C@@H](CCCNC(=N)N)C(=O)N[C@@H](Cc2ccc(O)cc2)C(=O)O)CSSC1(C)C [Example 82, Val-Hyp-Ile-Ile-Tyr-Pen-Asn-Arg-Lys-Thr-^DDab-Lys-Cys-Lys-Arg-Tyr] (HELM PEPTIDE1{V.[Hyp].I.I.Y.[Pen].N.R.K.T.[NCC[C@@H](N[*:1])C(=O)[*:2]].K.C.K.R.Y}$PEPTIDE1,PEPTIDE1,6:R3-13:R3$$$V2.0) | <1 | 0.25 | 0.125 | 0.125 |
| CC[C@H](C)[C@H](NC(=O)[C@@H](NC(=O)[C@@H]1C[C@@H](O)CN1C(=O)[C@@H](N)C(C)C)[C@@H](C)CC)C(=O)N[C@@H](Cc1ccc(O)cc1)C(=O)N[C@@H]1C(=O)N[C@@H](CC(N)=O)C(=O)N[C@@H](CCCNC(=N)N)C(=O)N[C@@H](CCN)C(=O)N[C@@H]([C@@H](C)O)C(=O)N[C@H](CCN)C(=O)N[C@@H]([C@@H](C)CC)C(=O)N[C@H](C(=O)N[C@@H](CCN)C(=O)N[C@@H](CCN)C(=O)N[C@@H](Cc2ccc(O)cc2)C(=O)O)CSSC1(C)C [Example 83, Val-Hyp-Ile-Ile-Tyr-Pen-Asn-Arg-Dab-Thr-^DDab-Ile-Cys-Dab-Dab-Tyr] (HELM PEPTIDE1{V.[Hyp].I.I.Y.[Pen].N.R.[Dab].T.[NCC[C@@H](N[*:1])C(=O)[*:2]].I.C.[Dab].[Dab].Y}$PEPTIDE1,PEPTIDE1,6:R3-13:R3$$$V2.0) | <1 | 0.5 | 0.25 | 0.25 |
